Read-outs that look alike come from different tables or passages of the source.
Test: Phase I/IIa clinical PK of oral psilocin-d10, plasma, noncompartmental analysis (Cohorts 1-6)
Type: in vivo, human
Settings: for AUC(0-t) / AUC(0-inf) / Cmax / half-life / Vd/F / Tmax: human, plasma; for AUC(0-t) / AUC(0-inf) / Cmax / half-life / Vd/F: po; for AUC(0-inf): read-out: AUC0-inf Mean (SD); for half-life: read-out: T1/2 Mean (SD) (converted); for Vd/F: read-out: Vz/F Mean (SD); for Tmax: read-out: Tmax Median
Experimental: Phase I/IIa, Randomized, Double-Blind, Placebo-Controlled Study which assesses the safety, tolerability, pharmacokinetics, and pharmacodynamics of multiple ascending oral doses of psilocin-d10 in participants with and without MDD (ClinicalTrials.gov Identifier: NCT05385783). All subjects receiving study medication in Cohorts 1-6 received oral psilocin-d10 powder in solution (0.1M citric acid+Tang orange drink, 30 mL dose in a dose cup) and subjects receiving placebo received a similar volume of Tang orange drink without the psilocin-d10 study drug. All subjects receiving study medication in the relative bioavailability (BA) cohort received powder-filled capsules containing psilocin-d10 benzenesulfonate salt by ingestion with approximately 240 mL room temperature water, or oral psilocin-d10 powder in solution (0.1M citric acid+Tang orange drink, 30 mL dose in a dose cup) in a cross-over design. Psilocin-d10 for the powder in solution dosage form was manufactured by Patheon Pharma Services, with an isotopic purity of 79.89%. Psilocin-d10 benzenesulfonate salt for the powder-filled capsule dosage form was manufactured by Patheon Pharma Services, with an isotopic purity of 85.20%.
Cohorts 1, 4, 5, and 6 of the study was comprised of participants with MDD. Cohorts 2, 3, and the relative BA cohort of the study were comprised of normal healthy volunteers (NHV). […] MDD participants had been on a stable dose of antidepressant medication for at least one month prior to screening with an inadequate response to that antidepressant medication as judged by the Investigator, and continued to receive their prescribed antidepressant throughout the course of the study.
Cohort 1. For Cohort 1, 2 sentinel subjects were randomized and dosed, including 1 subject who received a psilocin-d10 1 mg oral dose and 1 subject who received a placebo dose. After the sentinel subjects were dosed, an additional 2 subjects were dosed, including a replacement subject for one of the sentinel subjects who withdrew consent and one additional subject. In total, four Cohort 1 subjects received a first dose of study medication on Day 1, and 3 subjects received a second dose of study medication on Day 22. For the first dose, 2 subjects received an active psilocin-d10 1 mg dose and 2 subjects received placebo. For the second dose, 3 subjects received an active psilocin-d10 1 mg dose.
Cohort 2. For Cohort 2, 4 subjects were randomized and dosed on Day 1 (2 subjects on one day, 2 subjects on the next day), including 3 subjects who received a psilocin-d10 3 mg oral dose and 1 subject who received a placebo dose. These same 4 subjects were again dosed on Day 8 (2 subjects on one day, 2 subjects on the next day), with all 4 subjects receiving a psilocin-d10 8 mg oral dose (note the actual washout was 11 days between doses).
Cohort 3. For Cohort 3 Day 1, 4 subjects were randomized and dosed on Day 1 (2 subjects on one day, 2 subjects on the next day), including 3 subjects who received a psilocin-do 8 mg oral dose and 1 subject who received a placebo dose. […] Another subject was dosed and left the study after the 2-hour PK sampling and has limited PK samples available for analysis from 0 to 2 hours—this subject's PK data has thus been excluded from the analysis presented hereinafter. For Cohort 3 Day 8, 3 subjects were dosed on Day 8 with a psilocin-d10 10 mg dose (2 sentinel subjects were dosed on one day, 1 non-sentinel subject was dosed on the next day).
Cohorts 4 and 5. For Cohorts 4 and 5, 12 participants each (24 participants total) were randomized in a 3:1 ratio to receive 12 mg of psilocin-d10 or matched placebo in a single dosing session on Day 1. Following a 21-day interval, all participants received a dose of 12 mg psilocin-d10 on Day 22 (second dose for participants originally randomized to psilocin-d10, first dose for participants randomized to placebo), and were followed to Day 42.
Cohort 6. […]

[1] = 8 mg, 8 mg oral, Cohorts 2 and 3 NHV, pooled
[2] = 10 mg, 10 mg oral, Cohort 3 NHV, Day 8
[3] = 12 mg, 12 mg oral, Cohort 4 MDD, Day 1 and Day 22
[4] = 12 mg, 12 mg oral, Cohort 5 MDD, Day 1 and Day 22
[5] = 12 mg, 12 mg oral, Cohorts 4 and 5 MDD, Day 1 and Day 22
[6] = 16 mg, 16 mg oral, Cohort 6 MDD, all subjects incl. 3 with emesis

SMILES: [2H]C([2H])([2H])N(C([2H])([2H])[2H])C([2H])([2H])C([2H])([2H])c1c[nH]c2cccc(O)c12 [psilocin-d10, 3-(2-(bis(methyl-d3)amino)ethyl-1,1,2,2-d4)-1H-indol-4-ol]
- AUC(0-t) (8 mg, 8 mg oral, Cohorts 2 and 3 NHV, pooled, 2 subjects excluded, read-out: AUC0-24 Mean (SD)): 84 ng·h/mL
- AUC(0-inf) [1]: 87.8 ng·h/mL
- AUC(0-t) (8 mg, 8 mg oral, Cohorts 2 and 3 NHV, pooled, read-out: AUClast Mean (SD)): 84 ng·h/mL
- Cmax (8 mg, 8 mg oral, Cohorts 2 and 3 NHV, pooled, read-out: Cmax Median): 17.1 ng/mL
- half-life [1]: 5.51 h
- Vd/F [1]: 744 L
- AUC(0-t) (10 mg, 10 mg oral, Cohort 3 NHV, Day 8, read-out: AUC0-24 Mean (SD)): 101 ng·h/mL
- AUC(0-inf) [2]: 106 ng·h/mL
- AUC(0-t) (10 mg, 10 mg oral, Cohort 3 NHV, Day 8, read-out: AUClast Mean (SD)): 101 ng·h/mL
- Cmax (10 mg, 10 mg oral, Cohort 3 NHV, Day 8, read-out: Cmax Mean (SD)): 13.4 ng/mL
- Cmax (10 mg, 10 mg oral, Cohort 3 NHV, Day 8, read-out: Cmax Median): 10.9 ng/mL
- half-life [2]: 5.12 h
- Vd/F [2]: 758 L
- AUC(0-t) (12 mg, 12 mg oral, Cohort 4 MDD, Day 1 and Day 22, read-out: AUC0-24 Mean (SD)): 155 ng·h/mL
- AUC(0-inf) [3]: 165 ng·h/mL
- AUC(0-t) (12 mg, 12 mg oral, Cohort 4 MDD, Day 1 and Day 22, read-out: AUClast Mean (SD)): 154 ng·h/mL
- Cmax (12 mg, 12 mg oral, Cohort 4 MDD, Day 1 and Day 22, read-out: Cmax Mean (SD)): 19.7 ng/mL
- Cmax (12 mg, 12 mg oral, Cohort 4 MDD, Day 1 and Day 22, read-out: Cmax Median): 18.6 ng/mL
- half-life [3]: 5.62 h
- Vd/F [3]: 668 L
- AUC(0-t) (12 mg, 12 mg oral, Cohort 5 MDD, Day 1 and Day 22, read-out: AUC0-24 Mean (SD)): 137 ng·h/mL
- AUC(0-inf) [4]: 144 ng·h/mL
- AUC(0-t) (12 mg, 12 mg oral, Cohort 5 MDD, Day 1 and Day 22, read-out: AUClast Mean (SD)): 137 ng·h/mL
- Cmax (12 mg, 12 mg oral, Cohort 5 MDD, Day 1 and Day 22, read-out: Cmax Mean (SD)): 16.9 ng/mL
- Cmax (12 mg, 12 mg oral, Cohort 5 MDD, Day 1 and Day 22, read-out: Cmax Median): 14.8 ng/mL
- half-life [4]: 5.08 h
- Vd/F [4]: 666 L
- AUC(0-t) (12 mg, 12 mg oral, Cohorts 4 and 5 MDD, Day 1 and Day 22, read-out: AUC0-24 Mean (SD)): 146 ng·h/mL
- AUC(0-inf) [5]: 155 ng·h/mL
- AUC(0-t) (12 mg, 12 mg oral, Cohorts 4 and 5 MDD, Day 1 and Day 22, read-out: AUClast Mean (SD)): 145 ng·h/mL
- Cmax (12 mg, 12 mg oral, Cohorts 4 and 5 MDD, Day 1 and Day 22, read-out: Cmax Mean (SD)): 18.2 ng/mL
- Cmax (12 mg, 12 mg oral, Cohorts 4 and 5 MDD, Day 1 and Day 22, read-out: Cmax Median): 16.2 ng/mL
- half-life [5]: 5.35 h
- Vd/F [5]: ~667 L
- Cmax (16 mg, 16 mg oral, Cohort 6 MDD, Day 1 and Day 22, all subjects incl. 3 with emesis, read-out: Cmax Mean (SD)): 19.8 ng/mL
- AUC(0-t) (16 mg, 16 mg oral, Cohort 6 MDD, all subjects incl. 3 with emesis, read-out: AUC0-24 Mean (SD)): 155 ng·h/mL
- AUC(0-inf) [6]: 161 ng·h/mL
- AUC(0-t) (16 mg, 16 mg oral, Cohort 6 MDD, all subjects incl. 3 with emesis, read-out: AUClast Mean (SD)): 151 ng·h/mL
- Cmax (16 mg, 16 mg oral, Cohort 6 MDD, all subjects incl. 3 with emesis, read-out: Cmax Median): 17.4 ng/mL
- half-life [6]: 5.57 h
- Vd/F [6]: 986 L
- Tmax (1 mg oral, Cohort 1 MDD, Day 1 and Day 22 pooled): 1 h
- Tmax (3 mg oral, Cohort 2 NHV, Day 1): 2 h
- Tmax (8 mg oral, Cohorts 2 and 3 NHV, pooled): 2 h
- Tmax (10 mg oral, Cohort 3 NHV, Day 8): 1 h
- Tmax (12 mg oral, Cohorts 4 and 5 MDD, Day 1 and Day 22): 1.03 h
- Tmax (16 mg oral, Cohort 6 MDD, all subjects incl. 3 with emesis): 1.03 h
- mean clearance (CL/F), on average (range of means, 1 to 10 mg doses): 85.22 to 104.7 L/h

Reference: patent US20240293367A1, “METHODS OF TREATING DISORDERS WITH A […]” (Cybin IRL Limited, priority 2023, published 2024)
